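Grown in 96-well plates, cells were treated for 48 hours with each compound at five concentrations. Insufficient inhibition: endpoint recorded as highest concentration tested. GI50 = concentration required for 50% inhibition of growth.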 Active and inactive are the calls of the source. Rule as the data show it: active = GI50 up to about 1.1 µM and inactive = higher.
Legend:
Assay in all cases: growth of human tumour cells (NCI), 48 h
MDA-MB-435 = test system: MDA-MB-435
SW-620 = test system: SW-620
IGROV-1 = test system: IGROV-1
BT-549 = test system: BT-549
LOX IMVI = test system: LOX IMVI
SF-539 = test system: SF-539
PC-3 = test system: PC-3
SNB-75 = test system: SNB-75
SF-295 = test system: SF-295
HCT-116 = test system: HCT-116
SF-268 = test system: SF-268
NCI-H23 = test system: NCI-H23
CCRF-CEM = test system: CCRF-CEM
HL-60 = test system: HL-60
SNB-19 = test system: SNB-19
UO-31 = test system: UO-31
UACC-62 = test system: UACC-62
OVCAR-3 = test system: OVCAR-3
HT-29 = test system: HT-29
HOP-62 = test system: HOP-62

COc1cc(C2CC(C)(Nc3ccccc3)Oc3cc4c(cc32)OCO4)cc(OC)c1OC (stereo not given)
GI50 (MDA-MB-435): 0.0172 µM (active)
GI50 (SW-620): 0.234 µM (active)
GI50 (IGROV-1): 0.386 µM (active)
GI50 (BT-549): 0.506 µM (active)
GI50 (LOX IMVI): 0.256 µM (active)
GI50 (SF-539): 0.171 µM (active)
GI50 (PC-3): 0.251 µM (active)
GI50 (SNB-75): 3.49 µM (inactive)
GI50 (SF-295): 0.199 µM (active)
GI50 (HCT-116): 0.23 µM (active)
GI50 (SF-268): 4.58 µM (inactive)
GI50 (NCI-H23): 0.301 µM (active)
GI50 (CCRF-CEM): 0.124 µM (active)
GI50 (HL-60): 0.0906 µM (active)
GI50 (SNB-19): 0.736 µM (active)
GI50 (UO-31): 1.2 µM (inactive)
GI50 (UACC-62): 0.203 µM (active)
GI50 (OVCAR-3): 0.219 µM (active)
GI50 (HT-29): 0.182 µM (active)
GI50 (HOP-62): 0.192 µM (active)

CC(=O)CC[N+](C)(C)C
GI50 (MDA-MB-435): 37.8 µM (inactive)
GI50 (SW-620): 4.06 µM (inactive)
GI50 (IGROV-1): 37.3 µM (inactive)
GI50 (BT-549): 35 µM (inactive)
GI50 (LOX IMVI): 14.1 µM (inactive)
GI50 (SF-539): 62.8 µM (inactive)
GI50 (PC-3): 76.9 µM (inactive)
GI50 (SNB-75): 29 µM (inactive)
GI50 (SF-295): 83.6 µM (inactive)
GI50 (HCT-116): 25.2 µM (inactive)
GI50 (SF-268): 44.3 µM (inactive)
GI50 (NCI-H23): 29.2 µM (inactive)
GI50 (CCRF-CEM): 5.24 µM (inactive)
GI50 (HL-60): 4.42 µM (inactive)
GI50 (SNB-19): 22.7 µM (inactive)
GI50 (UO-31): 42 µM (inactive)
GI50 (UACC-62): 26.8 µM (inactive)
GI50 (OVCAR-3): 37.3 µM (inactive)
GI50 (HT-29): 32.7 µM (inactive)
GI50 (HOP-62): > 100 µM (inactive)

COc1cc(C2c3cc4c(cc3OC(C)(N3CCCC3)C2C)OCO4)cc(OC)c1OC (stereo not given)
GI50 (MDA-MB-435): 0.128 µM (active)
GI50 (SW-620): 0.153 µM (active)
GI50 (IGROV-1): 0.435 µM (active)
GI50 (BT-549): 0.232 µM (active)
GI50 (LOX IMVI): 0.452 µM (active)
GI50 (SF-539): 0.229 µM (active)
GI50 (PC-3): 0.34 µM (active)
GI50 (SNB-75): 0.269 µM (active)
GI50 (SF-295): 0.223 µM (active)
GI50 (HCT-116): 0.433 µM (active)
GI50 (SF-268): 0.714 µM (active)
GI50 (NCI-H23): 0.883 µM (active)
GI50 (CCRF-CEM): 0.267 µM (active)
GI50 (HL-60): 0.182 µM (active)
GI50 (SNB-19): 0.391 µM (active)
GI50 (UO-31): 1.26 µM (inactive)
GI50 (UACC-62): 0.373 µM (active)
GI50 (OVCAR-3): 0.203 µM (active)
GI50 (HT-29): 0.293 µM (active)
GI50 (HOP-62): 0.301 µM (active)

CCCC(=O)NC(Nc1ccc(S(=O)(=O)Nc2ccc(OC)nn2)cc1)(C(F)(F)F)C(F)(F)F
GI50 (MDA-MB-435): > 100 µM (inactive)
GI50 (SW-620): > 100 µM (inactive)
GI50 (IGROV-1): > 100 µM (inactive)
GI50 (BT-549): > 100 µM (inactive)
GI50 (LOX IMVI): > 100 µM (inactive)
GI50 (SF-539): > 100 µM (inactive)
GI50 (PC-3): > 100 µM (inactive)
GI50 (SNB-75): > 100 µM (inactive)
GI50 (SF-295): > 100 µM (inactive)
GI50 (HCT-116): > 100 µM (inactive)
GI50 (SF-268): > 100 µM (inactive)
GI50 (NCI-H23): > 100 µM (inactive)
GI50 (CCRF-CEM): > 100 µM (inactive)
GI50 (HL-60): > 100 µM (inactive)
GI50 (SNB-19): > 100 µM (inactive)
GI50 (UO-31): > 100 µM (inactive)
GI50 (UACC-62): > 100 µM (inactive)
GI50 (OVCAR-3): > 100 µM (inactive)
GI50 (HT-29): > 100 µM (inactive)
GI50 (HOP-62): > 100 µM (inactive)

CCOc1cc(/C=N/c2ccc(Oc3ccc(Cl)cc3)c(Cl)c2)ccc1O
GI50 (MDA-MB-435): 35.3 µM (inactive)
GI50 (SW-620): 29.6 µM (inactive)
GI50 (IGROV-1): 19.1 µM (inactive)
GI50 (BT-549): 17.8 µM (inactive)
GI50 (LOX IMVI): 19.8 µM (inactive)
GI50 (SF-539): 22.8 µM (inactive)
GI50 (PC-3): 31.8 µM (inactive)
GI50 (SNB-75): 17.8 µM (inactive)
GI50 (SF-295): 18.7 µM (inactive)
GI50 (HCT-116): 17.9 µM (inactive)
GI50 (SF-268): 15.7 µM (inactive)
GI50 (NCI-H23): 22.7 µM (inactive)
GI50 (CCRF-CEM): 16.1 µM (inactive)
GI50 (HL-60): 15.3 µM (inactive)
GI50 (SNB-19): 25.2 µM (inactive)
GI50 (UO-31): 11.8 µM (inactive)
GI50 (UACC-62): 27.7 µM (inactive)
GI50 (OVCAR-3): 29.6 µM (inactive)
GI50 (HT-29): 20.8 µM (inactive)
GI50 (HOP-62): 23.1 µM (inactive)

COC(=O)Cc1ccc2c(c1)Sc1ccc(CC(=O)OC)cc1N2C
GI50 (MDA-MB-435): 6.4 µM (inactive)
GI50 (SW-620): 39.1 µM (inactive)
GI50 (IGROV-1): 45.8 µM (inactive)
GI50 (BT-549): 16.1 µM (inactive)
GI50 (LOX IMVI): 14.3 µM (inactive)
GI50 (SF-539): 36.3 µM (inactive)
GI50 (PC-3): 25.8 µM (inactive)
GI50 (SNB-75): > 47.2 µM (inactive)
GI50 (SF-295): 22.8 µM (inactive)
GI50 (HCT-116): 24.1 µM (inactive)
GI50 (SF-268): 38.3 µM (inactive)
GI50 (NCI-H23): 28.6 µM (inactive)
GI50 (CCRF-CEM): 22 µM (inactive)
GI50 (HL-60): 20.7 µM (inactive)
GI50 (SNB-19): 44 µM (inactive)
GI50 (UO-31): 16.8 µM (inactive)
GI50 (UACC-62): 23.9 µM (inactive)
GI50 (OVCAR-3): 23.3 µM (inactive)
GI50 (HT-29): 10.8 µM (inactive)
GI50 (HOP-62): 27.4 µM (inactive)

COc1cccc(C2c3cc4c(cc3OC(NNC(N)=O)C2C)OCO4)c1OC (stereo not given)
GI50 (MDA-MB-435): 19.9 µM (inactive)
GI50 (SW-620): 22.6 µM (inactive)
GI50 (IGROV-1): 23.7 µM (inactive)
GI50 (BT-549): 20.1 µM (inactive)
GI50 (LOX IMVI): 19.1 µM (inactive)
GI50 (SF-539): 15.4 µM (inactive)
GI50 (PC-3): 19.4 µM (inactive)
GI50 (SNB-75): 15.8 µM (inactive)
GI50 (SF-295): 18.1 µM (inactive)
GI50 (HCT-116): 14.1 µM (inactive)
GI50 (SF-268): 27.7 µM (inactive)
GI50 (NCI-H23): 30.8 µM (inactive)
GI50 (CCRF-CEM): 24.7 µM (inactive)
GI50 (HL-60): 20.8 µM (inactive)
GI50 (SNB-19): 29.1 µM (inactive)
GI50 (UO-31): 25.6 µM (inactive)
GI50 (UACC-62): 22.3 µM (inactive)
GI50 (OVCAR-3): 17.5 µM (inactive)
GI50 (HT-29): 22.4 µM (inactive)
GI50 (HOP-62): 22 µM (inactive)

N#CC1=C(S)N(C2OC(CO)C(O)C(O)C2O)C(c2ccccc2)=CC1c1ccccc1 (stereo not given)
GI50 (MDA-MB-435): 39.9 µM (inactive)
GI50 (SW-620): 5.66 µM (inactive)
GI50 (IGROV-1): 46 µM (inactive)
GI50 (BT-549): 55.2 µM (inactive)
GI50 (LOX IMVI): 28.1 µM (inactive)
GI50 (SF-539): 24.7 µM (inactive)
GI50 (PC-3): 30.7 µM (inactive)
GI50 (SNB-75): 31.9 µM (inactive)
GI50 (SF-295): 34.3 µM (inactive)
GI50 (HCT-116): 35.6 µM (inactive)
GI50 (SF-268): 56.5 µM (inactive)
GI50 (NCI-H23): > 100 µM (inactive)
GI50 (CCRF-CEM): 37.2 µM (inactive)
GI50 (HL-60): 40.9 µM (inactive)
GI50 (SNB-19): 64.6 µM (inactive)
GI50 (UO-31): > 100 µM (inactive)
GI50 (UACC-62): 21.7 µM (inactive)
GI50 (OVCAR-3): 28.3 µM (inactive)
GI50 (HT-29): 48.9 µM (inactive)
GI50 (HOP-62): > 100 µM (inactive)

O=C(O)c1ccc(Nc2nc3cc(C(F)(F)F)ccc3n3cccc23)cc1
GI50 (MDA-MB-435): 34.7 µM (inactive)
GI50 (SW-620): 34.7 µM (inactive)
GI50 (IGROV-1): 29.5 µM (inactive)
GI50 (BT-549): 35.7 µM (inactive)
GI50 (LOX IMVI): 10.2 µM (inactive)
GI50 (SF-539): 23.3 µM (inactive)
GI50 (PC-3): 25.5 µM (inactive)
GI50 (SNB-75): 24.1 µM (inactive)
GI50 (SF-295): 27.2 µM (inactive)
GI50 (HCT-116): 23.1 µM (inactive)
GI50 (SF-268): 40.6 µM (inactive)
GI50 (NCI-H23): 35.8 µM (inactive)
GI50 (CCRF-CEM): 16.5 µM (inactive)
GI50 (HL-60): 18.4 µM (inactive)
GI50 (SNB-19): 54 µM (inactive)
GI50 (UO-31): > 100 µM (inactive)
GI50 (UACC-62): 23.9 µM (inactive)
GI50 (OVCAR-3): 30.2 µM (inactive)
GI50 (HT-29): 10.4 µM (inactive)
GI50 (HOP-62): 41 µM (inactive)
